{"source": "patent US20250179499A1", "about": "“USE OF CDK16 AS TARGET IN PREPARATION OF MEDICINE FOR TREATING TRIPLE-NEGATIVE BREAST CANCER” (SHENZHEN TYERCAN BIO-PHARM CO., LTD., priority 2022, published 2025)", "key": {"TNBC-type PDOs": {"system": "TNBC-type PDOs", "test": "Growth of TNBC PDO (patient-derived organoids in Matrigel)", "format": "cell-based, human", "conditions": "1 μM and 5 μM", "description": "The primary tumor cells from the patient infected with the lentivirus were resuspended with pre-cooled Matrigel to a concentration of 2× 10^4 cells/50 μL Matrigel. The Matrigel was added dropwise into a 24-well culture plate and allowed to stand at 37° C. for 15-20 min. After confluence, the cells were added with a breast cancer tumor organoid culture medium for culture, the culture medium was replaced by a fresh culture medium every three days, and the number and size of organoid growth were counted.\nSimilar to the PDO model establishment operation in Example 1, the primary tumor cells derived from TNBC patients were resuspended with pre-cooled Matrigel to a concentration of 2×10^4 cells/50 μL Matrigel. The Matrigel was added dropwise into a 24-well culture plate and allowed to stand at 37° C. for 15-20 min. After confluence, the cells were added with a breast cancer tumor organoid culture medium for culture, and the culture medium was replaced by a fresh culture medium every three days. The PDOs were divided into 6 groups, including an untreated group, a solvent control group, groups administrated with low and high doses of Abemaciclib (with doses of 1 μM and 5 μM, respectively), and groups administrated with low and high doses of Rebastinib (with doses of 1 μM and 5 μM, respectively). After three days of culture, the PDOs were started to be treated by addition of a drug according to groups. The size and number of organoids were counted after one week."}, "TNBC-type PDX tumors": {"system": "TNBC-type PDX tumors", "test": "Growth of TNBC-type PDX tumors", "format": "in vivo, NSG mice", "conditions": "Rebastinib 80 mg/kg by gavage, 11 days, vs solvent control; FIG. 5H-5K", "description": "Primary tumor cells from the patient infected with the lentivirus were in-situ injected into the fourth pair of mammary gland fat pads of the NSG mice according to the method described in 3, and the occurrence of tumors was observed and recorded.\n(§1) The tumor cell line was transplanted in situ as that in Example 1. When the tumor size reached […], the mice were divided into a control group (solvent) and a group administrated with Rebastinib (80 mg/kg), with 3 mice in each group. The mice were administrated by gavage continuously (administrated with MDA-MB-231 xenografts for 13 days and administrated with PDX for 11 days), during which the mice were weighed every day, and the tumor size was measured every three days. After completion of the administration, the mice were sacrificed and the tumors were weighed."}, "MDA-MB-231 xenografts": {"system": "MDA-MB-231 xenografts", "test": "Growth of MDA-MB-231 xenografts transplanted in situ into mammary gland fat pads", "format": "in vivo, mice", "conditions": "Rebastinib 80 mg/kg by gavage, 13 days, vs solvent control; FIG. 5A-5D", "from_the_text": "Lentivirus-infected breast tumor cells were resuspended with 50% of FBS (diluted with PBS), added with Matrigel at a volume ratio of 1:1, then added with 0.04% of trypan blue, mixed well, and placed on ice until inoculation into mice. After the mouse was anesthetized, it was placed on an experimental table with its abdomen facing upwards, and a “Y”-shaped opening was cut in its abdominal epidermis along a midline and the direction of the lower limbs on both sides with scissors (without cutting the peritoneum). The opening was peeled off to both sides with cotton swabs and tweezers to expose the fourth pair of mammary gland fat pads, and the epidermis was fixed with needles. 10-20 μL of a cell suspension was drawn up with a syringe and injected into the mammary gland fat pads. Finally, the skin on both sides was closed and sutured with surgical staples. The surgical staples could be removed after the wound healed. Since the surgery, the occurrence of tumors in the mouse was observed and recorded every day. After about one week, the length and width of the tumor were measured with a vernier caliper and recorded, and the change in the weight of the mouse was monitored. The tumor volume was calculated by the following formula: Volume (mm^3)=length×width×width×0.52.\nas §1"}}, "data": [{"compound": "CNC(=O)c1cc(Oc2ccc(NC(=O)Nc3cc(C(C)(C)C)nn3-c3ccc4ncccc4c3)c(F)c2)ccn1", "note": "[Rebastinib]", "values": [{"measurement": "sizes of TNBC-type PDOs", "setting": "TNBC-type PDOs; counted after one week, FIG. 5E", "value": "significantly inhibits"}, {"measurement": "number of TNBC-type PDOs", "setting": "TNBC-type PDOs; counted after one week, FIG. 5F", "value": "significantly reduces"}, {"measurement": "apoptosis of TNBC-type PDOs", "setting": "TNBC-type PDOs; FIG. 5G", "value": "promotes"}, {"measurement": "proliferation of TNBC-type PDOs", "setting": "TNBC-type PDOs; FIG. 5G", "value": "significantly inhibits"}, {"measurement": "sizes of TNBC-type PDX tumors", "setting": "TNBC-type PDX tumors", "value": "significantly inhibits"}, {"measurement": "volumes of TNBC-type PDX tumors", "setting": "TNBC-type PDX tumors", "value": "significantly inhibits"}, {"measurement": "weights of TNBC-type PDX tumors", "setting": "TNBC-type PDX tumors", "value": "significantly inhibits"}, {"measurement": "sizes of MDA-MB-231 tumors", "setting": "MDA-MB-231 xenografts", "value": "significantly inhibits"}, {"measurement": "volumes of MDA-MB-231 tumors", "setting": "MDA-MB-231 xenografts", "value": "significantly inhibits"}, {"measurement": "weights of MDA-MB-231 tumors", "setting": "MDA-MB-231 xenografts", "value": "significantly inhibits"}]}]}
